{
  "source": "patent US12202805B2",
  "about": "“Process for preparing (5S)-{[2-(4-carboxyphenyl)ethyl] |2-(2-{|3-chloro-4'-(trifluoromethyl)biphenyl-4-yl]methoxy}phenyl)ethyl]aminol-5,6,7,8-tetrahydroquinoline-2-carboxylic acid and its crystalline forms for use as pharmaceutically active compound” (Bayer Aktiengesellschaft, priority 2021, dated 2025)",
  "key": {"[1]": {"tested_on": "acetylcholine [ACh] rat model", "experiment": "Acetylcholine [ACh] rat model (bronchodilation)", "settings": "in vivo"}, "[2]": {"experiment": "Determination of thermal stability (solid, 7 days at 90° C., HPLC)", "assay_type": "physicochemical", "settings": "HPLC peak areas", "description": "Determination of thermal stability of comparative example 11:\n0.3 mg of the comparative example 11 were solved in 0.1 ml dimethylsulfoxide and 0.4 ml acetonitrile. Then 1.0 ml water was added. For complete dissolution the HPLC vial was shaken and sonicated. This solution was immediately analyzed by HPLC (reference at t0). 0.3 mg of the test compound was weighed into another HPLC vial. The vial was capped and stored for 7 days in a heating block at 90° C.\nAfter this time the vial was decapped and 0.1 ml dimethylsulfoxide and 0.4 ml acetonitrile were added to the stressed compound. Then 1.0 ml water was added. For complete dissolution the HPLC vial was shaken and sonicated. The sample was analyzed by HPLC (sample after 1 week). The peak areas in percentage are used for quantification."}, "[3]": {"tested_on": "thromboxane and hypoxia challenged rats, pigs, and dogs", "experiment": "Disease relevant animal models (thromboxane and hypoxia challenged), inhaled application, PAP", "assay_type": "in vivo"}, "[4]": {"experiment": "Protein binding via Transil assay, dog plasma", "assay_type": "in vitro ADME", "description": "(§1) Protein Binding of Comparative Example 11 and Comparative Example 1 was Analyzed Via Transil Assay, Described Below.\n(§2) The distribution of a test substance between Transil® (phosphatidylcholine lipid bilayers immobilized on silica beads) and plasma is a characteristic feature of any pharmaceutical compound and is dependent on its extent of binding to plasma proteins. By comparing the distribution between Transil® and buffer with the distribution between Transil® and plasma of any species of interest, the unbound fraction in the plasma of the respective animal species can be calculated in vitro. The respective plasma and buffer concentrations were determined via a radioactivity analysis. A detailed description of the method and its validation was published by Schuhmacher et al. (2)."}, "[5]": {"experiment": "Protein binding via Transil assay, minipig plasma", "assay_type": "in vitro ADME", "settings": "read-out: plasma fu (fraction unbound)", "description": "as §1, §2"}, "healthy male subjects": {"tested_on": "healthy male subjects", "experiment": "E-2.1 bodyplethysmography: total specific airway resistance (sRaw) in healthy male subjects", "assay_type": "in vivo, human", "description": "Healthy White male subjects, aged 18 to 45 years and with a body mass index (BMI) above/equal 18.5 and below/equal 29.9 kg/m2 were treated in a clinical pharmacological phase I study on seven days with inhaled once daily doses of 480 μg or 1000 μg or 2000 μg (2 capsules of 1000 μg) (nominal dose) of dry powder formulations comprising example 2 or Placebo. The subjects inhaled the drug powder from capsules (see under C-1, e.g. tables 22 and 23) inserted into a handheld inhalation device by one deep inhalative breath. The dry powder formulation of the drug is dispersed into the airstream and fine particles are transported into the deep parts of the lung where it is intended to cause a vasodilation of the blood vessels in PH patients for a substantial reduction of increased blood pressure in the central pulmonary blood vessels in PAH patients or other subtypes of PH. This effect cannot be shown in subjects with healthy lungs. In addition inhaled drug causes a dilation of the bronchial airways and thus also improves disease states of lung diseases in PH patients with pathological bronchoconstriction. This effect was measured via bodyplethysmography as reduction of Specific Airway Resistance in healthy subjects. […]"}, "sGC": {"tested_on": "sGC", "experiment": "E-2.2 inhalative administration in healthy male subjects for 14 days: cGMP", "assay_type": "in vivo, human", "settings": "1000 μg once daily inhaled", "description": "E-2.2 Inhalative Administration of sGC Activators in Healthy Male Subjects for 14 Days to Evaluate Steady State Pharmacokinetics\nHealthy white male subjects, aged 18 to 45 years and with a body mass index (BMI) above/equal 18.5 and below/equal 29.9 kg/m2 were treated in a clinical pharmacological phase I study for 14 days with inhaled once daily doses of 1000 μg (nominal dose) of Placebo or of dry powder formulation containing example 4. The subjects inhaled the drug powder from capsules (see under C, e.g. tables 17 and 20) inserted into a handheld inhalation device by one deep inhalative breath into the deep parts of the lung. The intended substantial reduction of increased blood pressure in the central pulmonary blood vessels cannot be evaluated in subjects without pathophysiological impairment of lung function. As surrogate for drug concentration in the lung, plasma concentrations over time have been analysed. […] Drug activity/target engagement in healthy men was controlled in the healthy subjects by analysing blood samples for cGMP."}, "[6]": {"tested_on": "patients with PAH or CTEPH", "experiment": "E-2.4 inhaled single doses in patients with PAH or CTEPH: PVR, mPAP (right heart catheterization), safety", "assay_type": "in vivo, human", "description": "E-2.4 Inhaled Administration of Single Doses to Patients with PAH or CTEPH to Investigate the Reduction of Pulmonary Vascular Resistance (PVR)\nPatients with PAH or CTEPH aged 18 to 80 years were treated in a clinical phase 1b study with orally inhaled single doses* of 240 μg (2 capsules of 120 μg), 480 μg (1 capsule of 480 μg), 1000 μg (1 capsule of 1000 μg), 2000 μg (2 capsules of 1000 μg) or 4000 μg (4 capsules of 1000 μg) of a dry powder formulation comprising example 4 (see C-1, e.g. tables 17 and 20) inserted into a handheld inhalation device, inhaled by deep inhalative breath into the deep parts of the lung (*single dose means the administration of one dosage form/capsule as well as administration of two or more dosage forms/capsules simultaneously or consecutively within a short time period). The included patients had no background treatment with standard of care (SoC) medication for PAH or CTEPH (such as endothelin antagonists, prostanoids, phosphodiesterase type 5 inhibitor or soluble guanylate cyclase stimulators). Patients in this study underwent invasive right heart catheterization as medically indicated routine diagnostic. Primary objective of the study was to investigate the peak percent reduction from baseline in PVR. Patients had to have a baseline pulmonary artery pressure (mPAP) of ≥25 mmHg and a PVR of ≥400 dyn·sec·cm^−5 (5 Wood Units) and were not to show vaso-responsiveness to initial iNO inhalation testing to be included in the per protocol analysis. Plasma concentrations (pharmacokinetics) of the administered drug at several time points after administration were measured and safety and tolerability was assessed.\nThe study is divided into two parts, Part A and Part B. In Part A escalating aforementioned single doses were administered to patients without background treatment with standard of care (SoC) medication for PAH or CTEPH (such as endothelin antagonists, prostanoids, phosphodiesterase type 5 inhibitor or soluble guanylate cyclase stimulators). In Part B, after finalization of Part A, a selected dose from PartA will be tested in further patients without background SoC treatment (group 1) and additionally in patients on monotherapy with SoC (group 2) and on dual combination therapy with SoC (group 3).\nThe PVR is a derived parameter from parameters directly measured during the right heart catheterization procedure. The direct parameters included in the calculation are: mean pulmonary arterial pressure [mmHg](mPAP), pulmonary capillary wedge pressure [mmHg] (PCWP), and cardiac output [1/min] (CO). The PVR is calculated according to the formula: PVR [dyn*sec*cm^−5]=80*(mPAP˜PCWP)/CO."}},
  "data": [
    {"smiles": "O=C(O)c1ccc(CCN(CCc2ccccc2OCc2ccc(-c3ccc(C(F)(F)F)cc3)cc2Cl)[C@H]2CCCc3nc(C(=O)O)ccc32)cc1", "note": "[comparative example 11, (5S)-5-{[2-(4-carboxyphenyl)ethyl][2-(2-{[3-chloro-4′-(trifluoromethyl)[biphenyl]-4-yl]methoxy}phenyl)ethyl]amino}-5,6,7,8-tetrahydroquinoline-2-carboxylic acid]", "values": [
      {"measurement": "effect on ventilation", "setting": "[1]", "value": "bronchodilatory effect"},
      {"measurement": "thermal stability", "setting": "[2]", "value": "stable"},
      {"measurement": "effect on elevated PAP", "setting": "[3]", "value": "selectively decreased elevated PAP"},
      {"measurement": "fraction unbound, times lower than comparative example 1", "setting": "[4]", "value": 10, "unit": "times"}
    ]},
    {"smiles": "O=C(O)c1ccc(CCN(CCc2ccccc2OCc2ccc(-c3ccc(C(F)(F)F)cc3)cc2Cl)[C@H]2CCCc3nc(C(=O)O)ccc32)cc1", "note": "[example 2, (5S)—{[2-(4-Carboxyphenyl)ethyl][2-(2-{[3-chloro-4′-(trifluoromethyl)biphenyl-4-yl]methoxy}phenyl)-ethyl]amino}-5,6,7,8-tetrahydroquinoline-2-carboxylic acid as Monohydrate II]", "values": [
      {"measurement": "fraction unbound", "setting": "[5]", "value": 0.00348},
      {"measurement": "total specific airway resistance", "setting": "healthy male subjects; 480 μg, 0 D 06 H 00 M", "value": "0.800 ± 0.187", "unit": "kPa/sec"},
      {"measurement": "total specific airway resistance", "setting": "healthy male subjects; 2000 μg, 7 D 06 H 00 M", "value": "0.730 ± 0.151", "unit": "kPa/sec"}
    ]},
    {"smiles": "O=C(O)c1ccc(CCN(CCc2ccccc2OCc2ccc(-c3ccc(C(F)(F)F)cc3)cc2Cl)[C@H]2CCCc3nc(C(=O)O)ccc32)cc1", "note": "[example 4, (5S)—{[2-(4-Carboxyphenyl)ethyl][2-(2-{[3-chloro-4′-(trifluoromethyl)biphenyl-4-yl]methoxy}phenyl)-ethyl]amino}-5,6,7,8-tetrahydroquinoline-2-carboxylic acid as Monohydrate I]", "values": [
      {"measurement": "steady state of cGMP concentration reached after days of treatment", "setting": "sGC", "value": "≤ 11", "unit": "days"},
      {"measurement": "changes of systemic blood pressure, heart rate and oxygen saturation", "setting": "[6]; at any dose", "value": "did not represent a safety concern"},
      {"measurement": "tolerability", "setting": "[6]; including the highest dose of 4000 μg", "value": "good tolerability"},
      {"measurement": "systemic cGMP", "setting": "[6]; patients with PAH or CTEPH", "value": "Increase"},
      {"measurement": "duration of sustained effect with no decrease in response", "setting": "[6]; until end of the measurement period", "value": "≥ 3", "unit": "h"}
    ]}
  ]
}
